Here are results for 29 compounds from ChEMBL document CHEMBL3259542, “Design, synthesis and pharmacological evaluation of novel polycyclic heteroarene ethers as PDE10A inhibitors: Part I” (Bioorg Med Chem Lett, 2014).

What is called inhibition is the relative decrease from the control value, in per cent. As usually defined, the IC50 is the midpoint of a concentration-inhibition curve. The Cmax is the highest concentration seen after dosing. Usually AUC(0-t) stands for the area under the concentration-time curve up to a stated or last time point. Read a high AUC(0-t) as more exposure.

The target in data set [1] is T1, cAMP and cAMP-inhibited cGMP 3',5'-cyclic phosphodiesterase 10A (Homo sapiens, UniProt Q9Y233). Briefly: Inhibition of N-terminal GST-tagged human recombinant PDE10A assessed as substrate hydrolysis using [3H]cAMP as substrate at 1 uM after 30 mins by two-step radiometric assay.
Data set [2] has as its target T1, cAMP and cAMP-inhibited cGMP 3',5'-cyclic phosphodiesterase 10A. Briefly: Inhibition of N-terminal GST-tagged human recombinant PDE10A assessed as substrate hydrolysis using [3H]cAMP as substrate after 30 mins by two-step radiometric assay.
Data set [3] can be described thus: Metabolic stability in rat liver microsomes assessed as compound remaining at 1 uM after 60 mins. It counts as ADME. As to conditions: read-out: Stability. For orientation: Liver microsomes are vesicles of endoplasmic reticulum, rich in cytochrome P450 enzymes.
Data set [4] is described as follows: Metabolic stability in human liver microsomes assessed as compound remaining at 1 uM after 60 mins. In kind it is ADME. As to conditions: read-out: Stability.
The test system of another data set is Liver microsome. Briefly: Drug level in rat liver microsomes treated with 9-Methyl-3-(2-{[3-(pyrimidin-5-yl)pyridin-2-yl]oxy}ethyl)-9H-pyrido[2,3-b]indole at 1 uM after 60 mins by LC-MS/MS analysis. The conditions noted are these: 1 h. In kind it is ADME.
Data set [5] in a line: Retention time of the compound by HPLC analysis. In kind it is physicochemical.
For data set [6], the target named is cGMP-dependent 3',5'-cyclic phosphodiesterase (Homo sapiens) (UniProt O00408). Briefly: Inhibition of N-terminal GST-tagged human recombinant PDE2A assessed as substrate hydrolysis using cAMP as substrate at 10 uM after 30 mins by homogenous time-resolved fluorescence method.
A further data set is filed under the species Homo sapiens. Briefly: Selectivity for human recombinant PDE10A over human recombinant PDE2A.
Data set [7] addresses Dual specificity calcium/calmodulin-dependent 3',5'-cyclic nucleotide phosphodiesterase 1A (Homo sapiens) (UniProt P54750). Briefly: Inhibition of N-terminal GST-tagged human recombinant PDE1A assessed as substrate hydrolysis using [3H]cAMP as substrate at 1 uM after 30 mins by two-step radiometric assay.
Data set [8] has as its target cGMP-dependent 3',5'-cyclic phosphodiesterase (Homo sapiens) (UniProt O00408). Briefly: Inhibition of N-terminal GST-tagged human recombinant PDE2A assessed as substrate hydrolysis using cAMP as substrate at 1 uM after 30 mins by homogenous time-resolved fluorescence method.
The target of data set [9] is cGMP-inhibited 3',5'-cyclic phosphodiesterase 3A (Homo sapiens) (UniProt Q14432). Briefly: Inhibition of N-terminal GST-tagged human recombinant PDE3A assessed as substrate hydrolysis using cAMP as substrate at 1 uM after 30 mins by homogenous time-resolved fluorescence method.
Data set [10] addresses 3',5'-cyclic-AMP phosphodiesterase 4D (Homo sapiens) (UniProt Q08499). Briefly: Inhibition of N-terminal GST-tagged human recombinant PDE4D assessed as substrate hydrolysis using [3H]cAMP as substrate at 1 uM after 30 mins by two-step radiometric assay.
In data set [11] the target is cGMP-specific 3',5'-cyclic phosphodiesterase (Homo sapiens) (UniProt O76074). Briefly: Inhibition of N-terminal GST-tagged human recombinant PDE5A assessed as substrate hydrolysis using [3H]cGMP as substrate at 1 uM after 30 mins by two-step radiometric assay.
For data set [12], the target named is High affinity 3',5'-cyclic-AMP phosphodiesterase 7A (Homo sapiens) (UniProt Q13946). Briefly: Inhibition of N-terminal GST-tagged human recombinant PDE7A assessed as substrate hydrolysis using [3H]cAMP as substrate at 1 uM after 30 mins by two-step radiometric assay.
Data set [13] addresses High affinity cAMP-specific and IBMX-insensitive 3',5'-cyclic phosphodiesterase 8A (Homo sapiens) (UniProt O60658). Briefly: Inhibition of N-terminal GST-tagged human recombinant PDE8A assessed as substrate hydrolysis using [3H]cAMP as substrate at 1 uM after 30 mins by two-step radiometric assay.
The target in data set [14] is High affinity cGMP-specific 3',5'-cyclic phosphodiesterase 9A (Homo sapiens) (UniProt O76083). Briefly: Inhibition of N-terminal GST-tagged human recombinant PDE9A assessed as substrate hydrolysis using [3H]cGMP as substrate at 1 uM after 30 mins by two-step radiometric assay.
In data set [15] the target is Dual 3',5'-cyclic-AMP and -GMP phosphodiesterase 11A (Homo sapiens) (UniProt Q9HCR9). Briefly: Inhibition of N-terminal GST-tagged human recombinant PDE11A assessed as substrate hydrolysis using [3H]cAMP as substrate at 1 uM after 30 mins by two-step radiometric assay.
Data set [16] is described as follows: Cmax in Sprague-Dawley rat at 5 mg/kg, po. The conditions noted are these: in vivo. It counts as ADME, organism-based. Also on record: dose 5 mg/kg, route oral.
Data set [17] in a line: AUC (0 to t) in Sprague-Dawley rat at 5 mg/kg, po. It counts as ADME, organism-based. Also on record: dose 5 mg/kg, route oral. As to conditions: plasma.
The nature of data set [18]: Drug uptake in Sprague-Dawley rat brain at 5 mg/kg, po after 1 hr. More on the design: dose 5 mg/kg, route oral. It counts as ADME, organism-based. The conditions noted are these: read-out: Drug uptake.

Each structure is given as a SMILES string.

Chain of cGMP-dependent 3',5'-cyclic phosphodiesterase (Homo sapiens) (O00408 whole entry): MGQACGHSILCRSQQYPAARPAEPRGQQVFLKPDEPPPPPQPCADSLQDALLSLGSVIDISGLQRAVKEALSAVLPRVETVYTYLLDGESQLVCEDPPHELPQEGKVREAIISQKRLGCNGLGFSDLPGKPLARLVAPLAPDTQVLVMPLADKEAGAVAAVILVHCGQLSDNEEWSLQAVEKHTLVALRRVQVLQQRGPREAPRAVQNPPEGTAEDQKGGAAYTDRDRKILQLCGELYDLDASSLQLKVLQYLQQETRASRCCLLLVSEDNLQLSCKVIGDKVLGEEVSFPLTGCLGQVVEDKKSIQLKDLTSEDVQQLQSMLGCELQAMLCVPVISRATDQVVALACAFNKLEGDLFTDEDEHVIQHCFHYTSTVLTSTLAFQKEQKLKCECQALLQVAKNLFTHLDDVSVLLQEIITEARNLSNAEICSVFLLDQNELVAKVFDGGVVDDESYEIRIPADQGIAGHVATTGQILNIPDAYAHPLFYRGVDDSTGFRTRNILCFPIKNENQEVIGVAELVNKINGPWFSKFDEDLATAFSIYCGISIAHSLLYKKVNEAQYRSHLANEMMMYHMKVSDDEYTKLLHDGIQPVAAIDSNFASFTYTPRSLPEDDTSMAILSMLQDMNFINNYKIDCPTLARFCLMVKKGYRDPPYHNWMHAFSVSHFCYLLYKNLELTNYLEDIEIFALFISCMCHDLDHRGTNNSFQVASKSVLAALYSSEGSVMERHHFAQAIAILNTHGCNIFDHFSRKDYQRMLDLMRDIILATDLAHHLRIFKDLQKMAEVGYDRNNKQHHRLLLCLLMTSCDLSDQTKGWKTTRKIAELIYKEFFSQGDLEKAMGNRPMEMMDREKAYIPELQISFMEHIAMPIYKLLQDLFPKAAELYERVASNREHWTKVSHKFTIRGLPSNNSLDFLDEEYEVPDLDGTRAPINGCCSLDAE
Chain of Dual 3',5'-cyclic-AMP and -GMP phosphodiesterase 11A (Homo sapiens) (Q9HCR9 whole entry, looked up): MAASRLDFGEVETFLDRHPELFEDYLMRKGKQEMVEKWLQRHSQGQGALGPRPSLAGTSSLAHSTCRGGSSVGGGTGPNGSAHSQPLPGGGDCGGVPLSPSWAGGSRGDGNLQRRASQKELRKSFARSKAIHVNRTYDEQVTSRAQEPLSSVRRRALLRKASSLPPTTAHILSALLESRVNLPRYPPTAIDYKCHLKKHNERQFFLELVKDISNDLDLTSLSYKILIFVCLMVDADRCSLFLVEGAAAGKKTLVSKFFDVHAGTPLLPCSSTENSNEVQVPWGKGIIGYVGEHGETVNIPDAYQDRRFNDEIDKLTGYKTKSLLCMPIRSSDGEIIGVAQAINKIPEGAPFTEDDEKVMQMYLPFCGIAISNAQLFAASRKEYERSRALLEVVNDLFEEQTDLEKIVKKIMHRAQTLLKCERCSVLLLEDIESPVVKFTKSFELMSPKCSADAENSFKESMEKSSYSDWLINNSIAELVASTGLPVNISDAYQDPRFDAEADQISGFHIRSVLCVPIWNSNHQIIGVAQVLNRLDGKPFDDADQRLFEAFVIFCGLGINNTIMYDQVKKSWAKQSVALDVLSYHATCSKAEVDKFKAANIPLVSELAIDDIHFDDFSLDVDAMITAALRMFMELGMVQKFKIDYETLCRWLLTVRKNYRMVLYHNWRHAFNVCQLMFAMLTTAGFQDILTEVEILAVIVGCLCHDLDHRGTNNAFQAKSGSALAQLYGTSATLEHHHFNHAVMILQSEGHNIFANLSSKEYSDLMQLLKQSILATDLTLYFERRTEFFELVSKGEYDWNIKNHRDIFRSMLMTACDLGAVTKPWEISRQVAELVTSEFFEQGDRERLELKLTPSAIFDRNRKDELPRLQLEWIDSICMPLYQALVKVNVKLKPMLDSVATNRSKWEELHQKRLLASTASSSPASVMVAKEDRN
Chain of High affinity cAMP-specific and IBMX-insensitive 3',5'-cyclic phosphodiesterase 8A (Homo sapiens) (O60658 whole entry): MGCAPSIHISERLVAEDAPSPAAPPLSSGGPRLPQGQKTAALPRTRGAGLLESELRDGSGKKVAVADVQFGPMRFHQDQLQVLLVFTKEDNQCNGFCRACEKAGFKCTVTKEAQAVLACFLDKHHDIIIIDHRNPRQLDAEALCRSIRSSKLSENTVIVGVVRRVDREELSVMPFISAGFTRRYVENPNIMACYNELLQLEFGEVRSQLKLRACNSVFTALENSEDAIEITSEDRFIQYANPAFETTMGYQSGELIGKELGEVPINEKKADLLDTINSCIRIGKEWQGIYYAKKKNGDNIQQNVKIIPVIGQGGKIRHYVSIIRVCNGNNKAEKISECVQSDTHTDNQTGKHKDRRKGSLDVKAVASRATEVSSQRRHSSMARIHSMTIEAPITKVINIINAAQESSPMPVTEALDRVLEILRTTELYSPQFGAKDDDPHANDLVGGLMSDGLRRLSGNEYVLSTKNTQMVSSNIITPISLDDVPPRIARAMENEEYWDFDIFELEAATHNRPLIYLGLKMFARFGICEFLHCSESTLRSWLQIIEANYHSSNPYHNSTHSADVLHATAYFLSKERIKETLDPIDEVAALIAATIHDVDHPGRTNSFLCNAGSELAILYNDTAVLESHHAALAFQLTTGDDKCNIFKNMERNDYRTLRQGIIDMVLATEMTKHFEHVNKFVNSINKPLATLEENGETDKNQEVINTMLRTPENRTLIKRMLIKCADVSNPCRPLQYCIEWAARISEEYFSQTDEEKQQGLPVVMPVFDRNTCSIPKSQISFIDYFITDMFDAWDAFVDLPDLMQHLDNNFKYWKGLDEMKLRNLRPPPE
T1 sequence (Q9Y233 whole entry): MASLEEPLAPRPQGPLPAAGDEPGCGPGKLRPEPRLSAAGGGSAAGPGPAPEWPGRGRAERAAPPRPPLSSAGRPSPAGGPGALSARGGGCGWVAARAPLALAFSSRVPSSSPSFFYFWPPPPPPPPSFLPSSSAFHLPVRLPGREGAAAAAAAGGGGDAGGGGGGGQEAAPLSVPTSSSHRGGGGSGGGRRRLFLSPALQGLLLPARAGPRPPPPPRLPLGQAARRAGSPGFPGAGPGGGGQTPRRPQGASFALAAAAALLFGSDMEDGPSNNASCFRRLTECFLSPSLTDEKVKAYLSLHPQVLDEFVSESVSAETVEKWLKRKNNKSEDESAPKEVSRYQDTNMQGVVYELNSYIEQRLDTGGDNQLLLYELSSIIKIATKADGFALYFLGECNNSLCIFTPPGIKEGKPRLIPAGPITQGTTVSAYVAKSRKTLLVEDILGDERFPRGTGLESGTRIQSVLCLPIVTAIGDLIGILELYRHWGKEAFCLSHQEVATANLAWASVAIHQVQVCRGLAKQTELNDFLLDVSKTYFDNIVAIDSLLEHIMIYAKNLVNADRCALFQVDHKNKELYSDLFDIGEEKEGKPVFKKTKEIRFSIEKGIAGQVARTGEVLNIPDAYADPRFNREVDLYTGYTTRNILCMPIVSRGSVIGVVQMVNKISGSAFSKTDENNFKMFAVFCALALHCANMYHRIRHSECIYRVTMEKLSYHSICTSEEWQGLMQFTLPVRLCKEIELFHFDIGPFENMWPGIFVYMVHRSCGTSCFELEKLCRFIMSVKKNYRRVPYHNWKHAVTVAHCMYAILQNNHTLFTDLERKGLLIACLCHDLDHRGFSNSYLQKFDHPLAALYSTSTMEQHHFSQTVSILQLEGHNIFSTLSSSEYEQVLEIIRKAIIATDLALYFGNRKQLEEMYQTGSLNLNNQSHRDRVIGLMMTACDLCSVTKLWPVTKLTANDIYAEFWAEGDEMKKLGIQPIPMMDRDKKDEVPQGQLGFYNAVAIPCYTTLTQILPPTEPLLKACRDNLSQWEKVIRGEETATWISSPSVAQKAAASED
Chain of cGMP-inhibited 3',5'-cyclic phosphodiesterase 3A (Homo sapiens) (Q14432 whole entry): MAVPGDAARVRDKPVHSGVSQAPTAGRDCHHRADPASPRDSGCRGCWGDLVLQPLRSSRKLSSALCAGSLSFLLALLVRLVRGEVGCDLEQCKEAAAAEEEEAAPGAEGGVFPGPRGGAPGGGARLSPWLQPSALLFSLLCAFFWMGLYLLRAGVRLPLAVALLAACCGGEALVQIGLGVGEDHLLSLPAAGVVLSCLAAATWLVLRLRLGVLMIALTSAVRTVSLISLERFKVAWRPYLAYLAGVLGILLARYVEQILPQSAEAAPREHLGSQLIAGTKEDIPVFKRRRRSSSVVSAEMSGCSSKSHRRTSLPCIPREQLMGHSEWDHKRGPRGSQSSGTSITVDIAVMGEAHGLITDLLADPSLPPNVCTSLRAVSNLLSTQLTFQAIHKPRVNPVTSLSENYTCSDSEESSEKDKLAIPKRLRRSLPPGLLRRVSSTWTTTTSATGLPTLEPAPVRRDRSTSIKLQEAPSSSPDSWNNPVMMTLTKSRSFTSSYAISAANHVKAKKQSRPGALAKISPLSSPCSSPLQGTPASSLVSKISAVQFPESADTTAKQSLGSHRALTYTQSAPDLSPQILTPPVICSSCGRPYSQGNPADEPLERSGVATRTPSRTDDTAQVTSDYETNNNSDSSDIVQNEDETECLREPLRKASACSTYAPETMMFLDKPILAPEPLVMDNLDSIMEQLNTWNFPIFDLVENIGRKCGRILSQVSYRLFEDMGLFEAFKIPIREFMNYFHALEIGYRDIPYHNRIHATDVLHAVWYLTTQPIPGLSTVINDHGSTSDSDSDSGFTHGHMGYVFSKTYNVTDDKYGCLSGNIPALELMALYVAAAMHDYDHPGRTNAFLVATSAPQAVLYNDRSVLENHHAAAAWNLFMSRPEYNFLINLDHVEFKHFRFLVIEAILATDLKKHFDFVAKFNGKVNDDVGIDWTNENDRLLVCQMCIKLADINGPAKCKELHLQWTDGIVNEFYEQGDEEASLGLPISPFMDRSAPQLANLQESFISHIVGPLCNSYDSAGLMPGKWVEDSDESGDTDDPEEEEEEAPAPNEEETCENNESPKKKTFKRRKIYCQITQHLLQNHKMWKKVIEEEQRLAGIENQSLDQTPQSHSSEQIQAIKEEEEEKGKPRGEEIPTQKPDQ

`Cn1c2ccccc2c2cc(C3(COc4ncccc4-c4cncnc4)CC3)cnc21`: the inhibition in [1] amounted to 54.7%. The IC50 in data set [2] was determined as 971 nM. Also, the remaining at 1 h, 1 µM in [3] is 17.5%; in data set [4], 19.6%.

With `Cn1c2ccccc2c2cc(CCOc3ncccc3-c3ccc(Cl)cc3)cnc21`, the inhibition in data set [1] amounted to 75.7%. For the same compound, the IC50 in [2] turned out to be 592 nM.

Consider `Cn1c2ccccc2c2cc(CCCOc3ncccc3-c3cncnc3)cnc21`, for which the inhibition in [1] came to 43.1%. In [2], the IC50 is 3220 nM.

Consider `C[N+]1([O-])c2ccccc2-c2cc(/C=C/Oc3ncccc3-c3cncnc3)cnc21` (centres undefined), for which, in the data set on Liver microsome, the Drug metabolism result is “metabolite_detected”. The compound also showed a Retention_time in [5] of 8.64 min.

Turning to `Cn1c2ccccc2c2cc(CCOc3ncccc3-c3ccncc3)cnc21`, the inhibition in data set [6] was 60%; in data set [1], 95.8%; in [7] it was 40.9%; in [8], 41.4%; in data set [9], 0%; in data set [10], 0.6%. In addition, the inhibition stood at 36.5% in data set [11]; 40.5% in data set [12]; 11.2% in data set [13]; 1.3% in data set [14]; 17.4% in [15]. For the same compound, in the data set listed under Homo sapiens, the Selectivity ratio is 100. For the same compound, the IC50 in data set [2] was found to be 10.4 nM. For the same compound, the remaining at 1 h, 1 µM was 0.77% in [3] and 0.63% in data set [4].

As to `Cn1c2ccccc2c2cc(/C=C/Oc3ncccc3-c3cncnc3)cnc21`, the Drug metabolism result in the data set with Liver microsome is “metabolite_detected”. The compound further came in with a Retention_time in data set [5] of 11.81 min.

Take `Cn1c2ccccc2c2cc(COc3nccnc3-c3cncnc3)cnc21`: the inhibition in data set [1] is 10.9%.

Regarding `c1cnc(OCCc2cnc3[nH]c4ccccc4c3c2)c(-c2cncnc2)c1`, the Drug metabolism result with Liver microsome is recorded as “metabolite_detected”. In data set [5], this compound gave a Retention_time of 10.86 min.

Turning to `[O-][n+]1cc(CCOc2ncccc2-c2cncnc2)cc2c3ccccc3[nH]c21`, in the data set on Liver microsome, the Drug metabolism entry is given as “metabolite_detected”. The Retention_time in data set [5] is given as 6.78 min.

As for `Cn1c2ccccc2c2cc(CCOc3nccnc3-c3ccc(Cl)cc3)cnc21`, in data set [1], the inhibition came to 87.2%. In addition, in data set [2], the IC50 came out at 188 nM.

In the case of `Cn1c2ccccc2c2cc(COc3nccc(-c4ccc(F)cc4)n3)cnc21`, the inhibition in data set [1] is 23.9%.

Regarding `Cn1c2ccccc2c2cc(/C=C\Oc3ncccc3-c3cncnc3)cnc21`, in the data set on Liver microsome, the Drug metabolism entry is “metabolite_detected”. In [5], this compound had a Retention_time of 10.86 min.

On to `Cn1c2ccccc2c2cc(CCOc3nccnc3-c3cncnc3)cnc21`, for which the inhibition in data set [1] was determined as 83.4%. Further, the IC50 in data set [2] was 67.4 nM.

Consider `Cn1c2ccccc2c2cc(CCOc3ncccc3-c3ccc(F)cc3)cnc21`, for which the inhibition in data set [1] turned out to be 88.5%. The IC50 in data set [2] worked out at 68.5 nM.

Turning to `Cn1cc(COc2nccc(-c3ccc(F)cc3)n2)c2nc3ccccc3cc21`, the inhibition in [1] is 12.1%.

As for `Cn1c2ccccc2c2cc(COc3nccc(-c4cncnc4)n3)cnc21`, in data set [1], the inhibition came out at 23.6%.

For `FC(F)n1c2ccccc2c2cc(CCOc3ncccc3-c3cncnc3)cnc21`, the inhibition came out at 60% in [6]; 96.3% in [1]; 14% in data set [7]; 40.6% in data set [8]; 0.4% in [9]; 3.8% in [10]. Further, the inhibition in data set [11] came to 16.7%; in [12] it was 20.8%; in data set [13] it was 2.1%; in [14] it was 5.3%; in data set [15], 15.8%. Besides, the Selectivity ratio in the data set listed under Homo sapiens was 100. In addition, the IC50 in data set [2] worked out at 33.2 nM. In addition, the remaining at 1 h, 1 µM in data set [3] was determined as 41.2%; in [4] it was 51.1%.

For `Cn1c2ccccc2c2cc(CCCOc3ncccc3-c3cccnc3F)cnc21`, in data set [1], the inhibition came out at 48.9%. In addition, the IC50 in data set [2] turned out to be 5940 nM.

For the compound `Cn1c2ccccc2c2cc(/C=C/Oc3ncccc3-c3cncnc3)c[n+]([O-])c21`, the Drug metabolism result with Liver microsome was “metabolite_detected”. The Retention_time in data set [5] came to 9.23 min.

On to `Cn1c2ccccc2c2cc(CCCOc3ncccc3N3CCOCC3)cnc21`, for which the inhibition in data set [1] amounted to 19.1%.

For the compound `Cn1cc(COc2ncccc2-c2ccncc2)c2nc3ccccc3cc21`, in data set [1], the inhibition was determined as 24.6%.

Take `Cn1c2ccccc2c2cc(CCOc3nccnc3-c3ccncc3)cnc21`: the inhibition is 60% in data set [6]; 97.2% in data set [1]; 30.1% in data set [7]; 34.5% in [8]; 0.2% in data set [9]; 11.9% in data set [10]. For the same compound, the inhibition in [11] turned out to be 13.6%; in data set [12], 27%; in data set [13], 2%; in data set [14], 4.3%; in [15], 21.7%. For the same compound, the Selectivity ratio in the data set filed under Homo sapiens is 100. Also, the IC50 in [2] turned out to be 11.2 nM. Further, the remaining at 1 h, 1 µM in data set [3] turned out to be 1.03%; in data set [4], 0.72%.

`Cn1cc(COc2ncccc2-c2cncnc2)c2nc3ccccc3cc21`: in data set [1], the inhibition stood at 30.7%.

In the case of `Cn1c2ccccc2c2cc(C(O)COc3ncccc3-c3cncnc3)cnc21` (centres undefined), the Drug metabolism entry in the data set with Liver microsome was “metabolite_detected”. For the same compound, the Retention_time in data set [5] was 11.55 min.

Take `OC(COc1ncccc1-c1cncnc1)c1cnc2[nH]c3ccccc3c2c1` (centres undefined): the Drug metabolism result with Liver microsome was “metabolite_detected”. In data set [5], the Retention_time was determined as 9.06 min.

For `FC(F)(F)Cn1cc(-c2ccncc2)c(-c2ccc(OCc3ccc4ccccc4n3)cc2)n1`, the 50% inhibitory concentration (IC50) in data set [2] came to 1.41 nM.

For `Cn1cc(CCOc2nccnc2-c2cncnc2)c2nc3ccccc3cc21`, the inhibition in [1] came to 82.1%. In addition, the IC50 in [2] came out at 123 nM. The remaining at 1 h, 1 µM in data set [3] was 0.27%; in [4], 0.11%.

Consider `Cn1c2ccccc2c2cc(/C=C/Oc3c(-c4cncnc4)ccc[n+]3[O-])cnc21`, for which the Drug metabolism result in the data set with Liver microsome is “metabolite_detected”. For the same compound, the Retention_time in [5] is reported as 9.69 min.

Regarding `Cn1c2ccccc2c2cc(CCOc3nccnc3-c3ccc(F)cc3)cnc21`, the inhibition came out at 60% in data set [6]; 85.4% in [1]; 13.5% in data set [7]; 11.9% in data set [8]; 0.1% in data set [9]; 0.7% in data set [10]. The inhibition was 5.9% in [11]; 18.3% in [12]; 0% in data set [13]; 1.6% in [14]; 18.6% in data set [15]. For the same compound, the Selectivity ratio in the data set listed under Homo sapiens is 100. In [2], the IC50 was determined as 41.5 nM. Besides, the remaining at 1 h, 1 µM in data set [3] amounted to 3.19%; in [4], 9.92%. This compound also came in with a Cmax in data set [16] of 103 ng/mL. In [17], the AUC(0-t) was 190 ng·h/mL. The concentration at 1 h in [18] is below 5.4 ng/mL.
